In general, cell viability refers to a read-out of living cells in per cent, often relative to untreated cells. Read a low cell viability as a greater loss of cells.

One data set deals with A549 cells. In words: Functional test of M4N@rABL (cell viability, trypan blue). It counts as cell-based. The note with it: 100 μM M4N (20 μg/ml rABL), 24 hrs treatment then 48 hrs culture. An excerpt: After removing the medium, the cells were washed twice with PBS and cultured with serum-containing medium for 48 hrs. The cell viability was observed by a trypan blue staining.

A further data set concerns mice. Particulars: long-term feeding; cited from earlier work.

As for `COc1ccc(C[C@@H](C)[C@@H](C)Cc2ccc(OC)c(OC)c2)cc1OC` [M4N, tetra-O-methyl nordihydroguaiaretic acid], in the data set on A549 cells, the cell viability stood at 40%. For the same molecule, in the data set on mice, the “weight changes or mortality” value is on record as “not found any obvious weight changes or mortality”.

These data come from patent US10792255B2, “Reconstituted apolipoprotein B lipoparticle, a preparation method and uses thereof” (National Chiao Tung University, priority 2013, dated 2020).
